One test has as its target PI3K-γ (Homo sapiens, UniProt P48736). Briefly: PI3K-gamma fluorescence polarization assay. A general note: Polarisation of emitted light reports the rotation of a fluorescent probe.
In another test the target is PI3K-α (Homo sapiens, UniProt P42336). Briefly: PI3K-alpha fluorescence polarization assay. As to conditions: read-out: IC50 PI3Kα.
In another test the target is Human mTOR (FLAG-TOR) (Homo sapiens, UniProt P42345). The test is described as follows: mTOR kinase assay (DELFIA format, purified enzyme). As to conditions: read-out: IC50 mTOR. In kind it is biochemical.
Test [1] concerns human prostate LNCap tumor cell line. The test is described as follows: In vitro cell culture growth assay (MTS), LNCap. As to conditions: Homo sapiens, LNCaP, 72 h, read-out: IC50 LNCap.

Structures are written as SMILES. Like-named read-outs stand apart in the source and are kept apart here.

Sequence of PI3K-γ (P48736 whole entry, species assumed): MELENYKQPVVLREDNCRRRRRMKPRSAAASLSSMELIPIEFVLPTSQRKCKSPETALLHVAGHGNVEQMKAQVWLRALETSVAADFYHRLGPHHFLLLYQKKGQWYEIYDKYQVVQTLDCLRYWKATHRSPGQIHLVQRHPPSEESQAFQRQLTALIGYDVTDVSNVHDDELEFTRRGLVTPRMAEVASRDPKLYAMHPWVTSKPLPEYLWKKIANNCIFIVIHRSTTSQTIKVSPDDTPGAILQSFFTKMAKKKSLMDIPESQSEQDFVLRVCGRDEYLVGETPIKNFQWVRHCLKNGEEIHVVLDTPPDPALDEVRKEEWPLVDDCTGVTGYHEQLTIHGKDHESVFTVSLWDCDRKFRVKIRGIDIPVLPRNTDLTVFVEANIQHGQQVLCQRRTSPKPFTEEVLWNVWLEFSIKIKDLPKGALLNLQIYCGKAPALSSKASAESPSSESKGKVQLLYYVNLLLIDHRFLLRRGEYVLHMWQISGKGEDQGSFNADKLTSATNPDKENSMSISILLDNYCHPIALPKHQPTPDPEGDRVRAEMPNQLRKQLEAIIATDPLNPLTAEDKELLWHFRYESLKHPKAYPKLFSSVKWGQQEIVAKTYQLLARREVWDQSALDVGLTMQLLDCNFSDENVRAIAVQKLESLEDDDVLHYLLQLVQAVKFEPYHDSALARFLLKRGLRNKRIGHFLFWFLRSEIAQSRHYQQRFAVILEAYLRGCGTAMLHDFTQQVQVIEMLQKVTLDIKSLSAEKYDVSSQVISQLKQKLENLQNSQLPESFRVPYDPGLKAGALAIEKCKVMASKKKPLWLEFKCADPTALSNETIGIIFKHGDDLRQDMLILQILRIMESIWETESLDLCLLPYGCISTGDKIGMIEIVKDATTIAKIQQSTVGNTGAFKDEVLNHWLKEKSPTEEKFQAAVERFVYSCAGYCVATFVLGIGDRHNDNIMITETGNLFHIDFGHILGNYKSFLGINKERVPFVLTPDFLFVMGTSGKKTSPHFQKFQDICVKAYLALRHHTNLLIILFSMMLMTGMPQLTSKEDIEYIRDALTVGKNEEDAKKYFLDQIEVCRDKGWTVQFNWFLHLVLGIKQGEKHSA
Sequence of PI3K-α (P42336 whole entry, species assumed): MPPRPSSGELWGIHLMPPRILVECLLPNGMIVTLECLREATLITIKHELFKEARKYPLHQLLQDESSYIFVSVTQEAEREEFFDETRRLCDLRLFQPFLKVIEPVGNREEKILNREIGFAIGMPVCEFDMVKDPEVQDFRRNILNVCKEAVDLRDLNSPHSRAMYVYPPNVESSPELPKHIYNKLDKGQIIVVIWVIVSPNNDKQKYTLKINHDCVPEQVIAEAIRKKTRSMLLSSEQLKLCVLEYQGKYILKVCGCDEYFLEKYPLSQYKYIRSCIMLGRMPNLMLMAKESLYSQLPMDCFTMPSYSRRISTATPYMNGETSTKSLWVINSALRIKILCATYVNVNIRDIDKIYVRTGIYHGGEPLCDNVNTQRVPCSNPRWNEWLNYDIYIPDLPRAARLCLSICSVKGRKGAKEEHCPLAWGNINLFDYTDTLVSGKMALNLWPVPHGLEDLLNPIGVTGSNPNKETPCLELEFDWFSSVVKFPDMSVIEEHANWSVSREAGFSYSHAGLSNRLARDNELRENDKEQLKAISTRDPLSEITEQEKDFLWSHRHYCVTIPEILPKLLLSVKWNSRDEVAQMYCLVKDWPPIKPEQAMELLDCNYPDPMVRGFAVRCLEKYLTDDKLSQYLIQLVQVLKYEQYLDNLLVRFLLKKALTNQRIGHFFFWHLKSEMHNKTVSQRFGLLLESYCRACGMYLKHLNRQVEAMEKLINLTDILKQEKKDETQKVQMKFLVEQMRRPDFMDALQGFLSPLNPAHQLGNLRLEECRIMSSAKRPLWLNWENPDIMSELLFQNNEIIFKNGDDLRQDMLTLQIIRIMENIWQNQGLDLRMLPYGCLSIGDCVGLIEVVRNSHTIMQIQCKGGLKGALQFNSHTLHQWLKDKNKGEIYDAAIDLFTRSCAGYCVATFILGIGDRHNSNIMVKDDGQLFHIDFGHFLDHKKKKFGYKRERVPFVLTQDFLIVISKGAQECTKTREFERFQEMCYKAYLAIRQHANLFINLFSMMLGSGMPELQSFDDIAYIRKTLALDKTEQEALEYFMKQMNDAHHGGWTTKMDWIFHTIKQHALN
Sequence of PI3K-α (P27986 whole entry partner, species assumed): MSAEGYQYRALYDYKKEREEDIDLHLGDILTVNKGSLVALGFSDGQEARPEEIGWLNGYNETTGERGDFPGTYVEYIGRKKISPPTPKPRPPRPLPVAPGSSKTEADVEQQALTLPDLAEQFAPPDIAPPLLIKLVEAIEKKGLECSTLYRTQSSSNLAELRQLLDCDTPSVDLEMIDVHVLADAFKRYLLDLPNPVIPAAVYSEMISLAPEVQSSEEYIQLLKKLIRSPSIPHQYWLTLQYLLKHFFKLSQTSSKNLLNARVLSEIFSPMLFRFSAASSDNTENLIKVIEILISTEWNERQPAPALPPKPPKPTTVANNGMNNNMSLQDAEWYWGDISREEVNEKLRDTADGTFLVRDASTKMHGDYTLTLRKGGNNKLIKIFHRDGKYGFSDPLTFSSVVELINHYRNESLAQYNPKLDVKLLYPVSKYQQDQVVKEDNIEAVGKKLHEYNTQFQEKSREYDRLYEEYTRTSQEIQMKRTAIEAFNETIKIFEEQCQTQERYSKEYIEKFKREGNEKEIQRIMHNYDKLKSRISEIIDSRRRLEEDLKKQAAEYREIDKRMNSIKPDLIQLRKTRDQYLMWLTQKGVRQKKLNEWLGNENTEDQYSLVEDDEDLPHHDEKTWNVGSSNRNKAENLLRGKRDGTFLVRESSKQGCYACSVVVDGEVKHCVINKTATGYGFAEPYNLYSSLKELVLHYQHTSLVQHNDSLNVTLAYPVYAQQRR
Sequence of Human mTOR (FLAG-TOR) (P42345 1360-2549 limits assumed): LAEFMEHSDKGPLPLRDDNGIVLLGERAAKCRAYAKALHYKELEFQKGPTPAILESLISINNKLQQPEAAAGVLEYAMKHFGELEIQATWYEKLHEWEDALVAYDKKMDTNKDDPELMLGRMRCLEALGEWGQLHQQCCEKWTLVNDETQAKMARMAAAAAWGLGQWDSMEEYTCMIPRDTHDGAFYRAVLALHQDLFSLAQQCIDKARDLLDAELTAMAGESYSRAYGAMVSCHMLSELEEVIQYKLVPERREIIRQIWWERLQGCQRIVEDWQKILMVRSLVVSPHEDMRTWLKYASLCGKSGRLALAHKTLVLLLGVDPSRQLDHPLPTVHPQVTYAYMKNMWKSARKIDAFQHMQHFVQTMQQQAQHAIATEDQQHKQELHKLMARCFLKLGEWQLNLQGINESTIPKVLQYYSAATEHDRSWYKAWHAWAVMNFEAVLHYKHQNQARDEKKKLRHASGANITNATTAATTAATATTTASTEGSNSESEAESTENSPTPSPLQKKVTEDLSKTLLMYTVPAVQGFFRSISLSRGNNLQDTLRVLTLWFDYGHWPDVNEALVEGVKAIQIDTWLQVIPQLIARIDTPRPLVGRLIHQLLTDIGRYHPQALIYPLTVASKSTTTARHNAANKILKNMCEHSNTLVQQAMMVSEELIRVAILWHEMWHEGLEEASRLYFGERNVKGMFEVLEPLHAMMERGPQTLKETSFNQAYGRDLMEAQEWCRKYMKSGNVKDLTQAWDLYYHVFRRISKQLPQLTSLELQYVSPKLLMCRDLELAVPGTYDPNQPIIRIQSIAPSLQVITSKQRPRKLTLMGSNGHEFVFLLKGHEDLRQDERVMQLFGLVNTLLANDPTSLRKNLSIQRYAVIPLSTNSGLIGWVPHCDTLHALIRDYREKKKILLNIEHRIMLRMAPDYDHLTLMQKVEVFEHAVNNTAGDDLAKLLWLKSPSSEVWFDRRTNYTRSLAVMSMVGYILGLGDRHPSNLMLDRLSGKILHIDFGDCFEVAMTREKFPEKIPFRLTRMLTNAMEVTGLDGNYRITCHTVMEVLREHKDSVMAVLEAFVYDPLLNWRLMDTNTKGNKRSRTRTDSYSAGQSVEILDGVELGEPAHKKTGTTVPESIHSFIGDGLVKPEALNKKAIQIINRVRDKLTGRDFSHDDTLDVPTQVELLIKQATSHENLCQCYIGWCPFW

For orientation: IC50 means the concentration that inhibits the measured activity by half. Consider `C[C@@H]1COCCN1c1nc(-c2ccc(NC(=O)Nc3ccc(N4CCN(C)CC4)cc3)cc2)nc(N2CCOC[C@H]2C)n1` [Example 399, 1-(4-(4,6-bis((R)-3-methylmorpholino)-1,3,5-triazin-2-yl)phenyl)-3-(4-(4-methylpiperazin-1-yl)phenyl)urea], for which the concentration for half-maximal inhibition (IC50) at PI3K-γ (read-out: IC50 PI3Kγ) came to 1690 nM; at PI3K-α, 330 nM; on Human mTOR (FLAG-TOR), 1.1 nM; in test [1] it was 3 nM.
Turning to `C[C@@H]1COCCN1c1nc(-c2ccc(NC(=O)Nc3ccc(CN(C)C)cc3)cc2)nc(N2CCOC[C@H]2C)n1` [Example 401, 1-(4-(4,6-bis((R)-3-methylmorpholino)-1,3,5-triazin-2-yl)phenyl)-3-(4-((dimethylamino)methyl)phenyl)urea], the IC50 on PI3K-γ (read-out: IC50 PI3Kγ) is 3250 nM; on PI3K-α, 413 nM; on Human mTOR (FLAG-TOR) it was 2 nM; in test [1] it was 21 nM.
Turning to `C[C@@H]1COCCN1c1nc(-c2ccc(NC(=O)Nc3ccc(OCCN(C)C)cc3)cc2)nc(N2CCOC[C@H]2C)n1` [Example 402, 1-(4-(4,6-bis((R)-3-methylmorpholino)-1,3,5-triazin-2-yl)phenyl)-3-(4-(2-(dimethylamino)ethoxy)phenyl)urea], the half-maximal inhibitory concentration (IC50) stood at 3640 nM on PI3K-γ (read-out: IC50 PI3Kγ), 543 nM at PI3K-α, 1.8 nM on Human mTOR (FLAG-TOR) and 7 nM in test [1].
With `C[C@@H]1COCCN1c1nc(-c2ccc(NC(=O)Nc3ccc(OCCN4CCCC4)cc3)cc2)nc(N2CCOC[C@H]2C)n1` [Example 403, 1-(4-(4,6-bis((R)-3-methylmorpholino)-1,3,5-triazin-2-yl)phenyl)-3-(4-(2-(pyrrolidin-1-yl)ethoxy)phenyl)urea], the 50% inhibitory concentration (IC50) at PI3K-γ (read-out: IC50 PI3Kγ) came out at 2380 nM; at PI3K-α, 314 nM; at Human mTOR (FLAG-TOR) it was 0.75 nM; in test [1] it was 8 nM.
In the case of `O=C(Nc1ccncc1)Nc1ccc(-c2nc(C3=CCOCC3)nc(N3C4CCC3COC4)n2)cc1` [Example 404, 1-(4-(4-(3-oxa-8-azabicyclo[3.2.1]octan-8-yl)-6-(3,6-dihydro-2H-pyran-4-yl)-1,3,5-triazin-2-yl)phenyl)-3-(pyridin-4-yl)urea], the IC50 at PI3K-γ (read-out: IC50 PI3Kγ) was determined as 433 nM; at PI3K-α it was 63 nM; at Human mTOR (FLAG-TOR), 0.69 nM; in test [1], 60 nM.
The like results for `O=C(Nc1ccncc1)Nc1ccc(-c2nc(C3CCOCC3)nc(N3C4CCC3COC4)n2)cc1` [Example 406, 1-(4-(4-(3-oxa-8-azabicyclo[3.2.1]octan-8-yl)-6-(tetrahydro-2H-pyran-4-yl)-1,3,5-triazin-2-yl)phenyl)-3-(pyridin-4-yl)urea] were, in that order, 1880 nM, 478 nM, 0.38 nM and 2.4 nM.
For `CN(C)Cc1ccc(NC(=O)Nc2ccc(-c3nc(C4CCOCC4)nc(N4C5CCC4COC5)n3)cc2)cc1` [Example 409, 1-(4-(4-(3-oxa-8-azabicyclo[3.2.1]octan-8-yl)-6-(tetrahydro-2H-pyran-4-yl)-1,3,5-triazin-2-yl)phenyl)-3-(4-((dimethylamino)methyl)phenyl)urea], in that order: 4490 nM, 856 nM, 1.5 nM and 50 nM.
As to `C[C@@H]1COCCN1c1nc(-c2ccc(NC(=O)Nc3ccncc3)cc2)nc(N2C[C@@H]3C[C@H]2CO3)n1` [Example 410, 1-(4-(4-((1S,4S)-2-oxa-5-azabicyclo[2.2.1]heptan-5-yl)-6-((R)-3-methylmorpholino)-1,3,5-triazin-2-yl)phenyl)-3-(pyridin-4-yl)urea], the concentration for half-maximal inhibition (IC50) was 5680 nM at PI3K-γ (read-out: IC50 PI3Kγ), 826 nM on PI3K-α, 2.3 nM at Human mTOR (FLAG-TOR) and 110 nM in test [1].
As for `C[C@@H]1COCCN1c1nc(-c2ccc(NC(=O)Nc3cccnc3)cc2)nc(N2C[C@@H]3C[C@H]2CO3)n1` [Example 411, 1-(4-(4-((1S,4S)-2-oxa-5-azabicyclo[2.2.1]heptan-5-yl)-6-((R)-3-methylmorpholino)-1,3,5-triazin-2-yl)phenyl)-3-(pyridin-3-yl)urea], the IC50 is above 10000 nM on PI3K-γ, 1900 nM on PI3K-α, 3.6 nM at Human mTOR (FLAG-TOR) and 250 nM in test [1].
Turning to `C[C@@H]1COCCN1c1nc(-c2ccc(NC(=O)Nc3ccc(N4CCN(C)CC4)cc3)cc2)nc(N2C[C@@H]3C[C@H]2CO3)n1` [Example 412, 1-(4-(4-((1S,4S)-2-oxa-5-azabicyclo[2.2.1]heptan-5-yl)-6-((R)-3-methylmorpholino)-1,3,5-triazin-2-yl)phenyl)-3-(4-(4-methylpiperazin-1-yl)phenyl)urea], the half-maximal inhibitory concentration (IC50) at PI3K-γ (read-out: IC50 PI3Kγ) turned out to be 7480 nM; at PI3K-α, 1230 nM; at Human mTOR (FLAG-TOR), 7.3 nM; in test [1], 25 nM.
Regarding `C[C@@H]1COCCN1c1nc(-c2ccc(NC(=O)Nc3ccc(CN4CCN(C)CC4)cc3)cc2)nc(N2C[C@@H]3C[C@H]2CO3)n1` [Example 413, 1-(4-(4-((1S,4S)-2-oxa-5-azabicyclo[2.2.1]heptan-5-yl)-6-((R)-3-methylmorpholino)-1,3,5-triazin-2-yl)phenyl)-3-(4-((4-methylpiperazin-1-yl)methyl)phenyl)urea], the IC50 at PI3K-γ was above 10000 nM; on PI3K-α, 1520 nM; on Human mTOR (FLAG-TOR) it was 9.2 nM; in test [1] it was 150 nM.
On to `C[C@@H]1COCCN1c1nc(-c2ccc(NC(=O)Nc3ccc(CN4CCCC4)cc3)cc2)nc(N2C[C@@H]3C[C@H]2CO3)n1` [Example 414, 1-(4-(4-((1S,4S)-2-oxa-5-azabicyclo[2.2.1]heptan-5-yl)-6-((R)-3-methylmorpholino)-1,3,5-triazin-2-yl)phenyl)-3-(4-(pyrrolidin-1-ylmethyl)phenyl)urea], for which the IC50 was 5450 nM on PI3K-γ (read-out: IC50 PI3Kγ), 969 nM at PI3K-α, 6.9 nM on Human mTOR (FLAG-TOR) and 120 nM in test [1].
The like results for `C[C@@H]1COCCN1c1nc(-c2ccc(NC(=O)Nc3cccnc3)cc2)nc(N2C3CCC2COC3)n1` [Example 415, 1-(4-(4-(3-oxa-8-azabicyclo[3.2.1]octan-8-yl)-6-((R)-3-methylmorpholino)-1,3,5-triazin-2-yl)phenyl)-3-(pyridin-3-yl)urea] were, in that order, 3260 nM, 787 nM, 0.38 nM and 29 nM.
With `C[C@@H]1COCCN1c1nc(-c2ccc(NC(=O)Nc3ccncc3)cc2)nc(N2C3CCC2COC3)n1` [Example 416, 1-(4-(4-(3-oxa-8-azabicyclo[3.2.1]octan-8-yl)-6-((R)-3-methylmorpholino)-1,3,5-triazin-2-yl)phenyl)-3-(pyridin-4-yl)urea], the half-inhibitory concentration (IC50) at PI3K-γ (read-out: IC50 PI3Kγ) was 2500 nM; on PI3K-α, 446 nM; at Human mTOR (FLAG-TOR), 0.55 nM; in test [1] it was 12 nM.
The like results for `C[C@@H]1COCCN1c1nc(-c2ccc(NC(=O)Nc3ccc(CN4CCCC4)cc3)cc2)nc(N2C3CCC2COC3)n1` [Example 418, 1-(4-(4-(3-oxa-8-azabicyclo[3.2.1]octan-8-yl)-6-((R)-3-methylmorpholino)-1,3,5-triazin-2-yl)phenyl)-3-(4-(pyrrolidin-1-ylmethyl)phenyl)urea] were, in that order, 3480 nM, 520 nM, 1.5 nM and 40 nM.
The like results for `C[C@@H]1COCCN1c1nc(-c2ccc(NC(=O)Nc3ccc(N4CCN(C)CC4)cc3)cc2)nc(C2CCOCC2)n1` [Example 421, (R)-1-(4-(4-(3-methylmorpholino)-6-(tetrahydro-2H-pyran-4-yl)-1,3,5-triazin-2-yl)phenyl)-3-(4-(4-methylpiperazin-1-yl)phenyl)urea] were, in that order, 1570 nM, 414 nM, 0.72 nM and 1 nM.
For `C[C@@H]1COCCN1c1nc(-c2ccc(NC(=O)Nc3ccc(N4CCNCC4)cc3)cc2)nc(C2CCOCC2)n1` [Example 422, (R)-1-(4-(4-(3-methylmorpholino)-6-(tetrahydro-2H-pyran-4-yl)-1,3,5-triazin-2-yl)phenyl)-3-(4-(piperazin-1-yl)phenyl)urea], in that order: 1220 nM, 269 nM, 0.79 nM and 2 nM.
For the compound `CN1CCN(c2ccc(NC(=O)Nc3ccc(-c4nc(N5CC[S+]([O-])CC5)nc(N5C6CCC5COC6)n4)cc3)cc2)CC1` [Example 426, 1-(4-(4-(3-oxa-8-azabicyclo[3.2.1]octan-8-yl)-6-sulfoxymorpholino-1,3,5-triazin-2-yl)phenyl)-3-(4-(4-methylpiperazin-1-yl)phenyl)urea], the IC50 on PI3K-γ (read-out: IC50 PI3Kγ) is 8480 nM; on PI3K-α it was 1220 nM; at Human mTOR (FLAG-TOR) it was 53 nM; in test [1], 700 nM.
For `C[C@@H]1COCCN1c1nc(-c2ccc(NC(=O)Nc3ccc(OCCN(C)C)cc3)cc2)nc(C2CCOCC2)n1` [Example 427, (R)-1-(4-(2-(dimethylamino)ethoxy)phenyl)-3-(4-(4-(3-methylmorpholino)-6-(tetrahydro-2H-pyran-4-yl)-1,3,5-triazin-2-yl)phenyl)urea], in that order: 1420 nM, 580 nM, 1.3 nM and 7 nM.
For `CCN1CCN(c2ccc(NC(=O)Nc3ccc(-c4nc(C5CCOCC5)nc(N5CCOC[C@H]5C)n4)cc3)cc2)CC1` [Example 428, (R)-1-(4-(4-ethylpiperazin-1-yl)phenyl)-3-(4-(4-(3-methylmorpholino)-6-(tetrahydro-2H-pyran-4-yl)-1,3,5-triazin-2-yl)phenyl)urea], in that order: 840 nM, 450 nM, 1.4 nM and 1 nM.

Values taken from patent publication US20090304692A1, “TRIAZINE COMPOUNDS AS PI3 KINASE AND MTOR INHIBITORS” (Wyeth, priority 2008, published 2009).
